Measured values from US8063021B2, “Ketolide anti-infective compounds” (Kosan Biosciences Incorporated, priority 2003, dated 2011).
Read-outs that look alike come from different tables or passages of the source.

How the values were obtained:
[1] = tested on: S. aureus ATCC 29213; test: microdilution assay MIC, S. aureus ATCC 29213; format: cell-based, Staphylococcus aureus; conditions: S. aureus ATCC 29213, erythromycin sensitive strain, average where multiple assays
Protocol: (§1) In Table B, in some instances multiple assays were performed for a compound/strain combination, in which case the reported MIC is the average. S. pneumoniae ATCC 6301, ATCC 700671, and ATCC 49619 and S. aureus ATCC 6538p and ATCC 29213 are erythromycin sensitive strains.

[2] = tested on: S. pneumoniae ATCC 6301; test: microdilution assay MIC, S. pneumoniae ATCC 6301; format: cell-based, Streptococcus pneumoniae; conditions: S. pneumoniae ATCC 6301, erythromycin sensitive strain, average where multiple assays
Protocol: as §1

[3] = tested on: E. faecalis ATCC 51575; test: microdilution assay MIC, E. faecalis ATCC 51575; format: cell-based, Enterococcus faecalis
Protocol: (§2) In Table B, in some instances multiple assays were performed for a compound/strain combination, in which case the reported MIC is the average.

[4] = tested on: S. pneumoniae ATCC 700676; test: microdilution assay MIC, S. pneumoniae ATCC 700676; format: cell-based, Streptococcus pneumoniae
Protocol: as §1

[5] = tested on: S. pneumoniae ATCC 49619; test: microdilution assay MIC, S. pneumoniae ATCC 49619; format: cell-based, Streptococcus pneumoniae; conditions: S. pneumoniae ATCC 49619, erythromycin sensitive strain, average where multiple assays
Protocol: as §1

[6] = tested on: S. pneumoniae ATCC 700671; test: microdilution assay MIC, S. pneumoniae ATCC 700671; format: cell-based, Streptococcus pneumoniae; conditions: S. pneumoniae ATCC 700671, erythromycin sensitive strain, average where multiple assays
Protocol: as §1

[7] = tested on: S. pneumoniae ATCC 700677; test: microdilution assay MIC, S. pneumoniae ATCC 700677; format: cell-based, Streptococcus pneumoniae
Protocol: as §1

[8] = tested on: H. influenzae ATCC 49766; test: microdilution assay MIC, H. influenzae ATCC 49766; format: cell-based, Haemophilus influenzae
Protocol: as §1

[9] = tested on: S. pneumoniae ATCC 700905; test: microdilution assay MIC, S. pneumoniae ATCC 700905; format: cell-based, Streptococcus pneumoniae
Protocol: as §1

[10] = tested on: S. pneumoniae ATCC 700906; test: microdilution assay MIC, S. pneumoniae ATCC 700906; format: cell-based, Streptococcus pneumoniae
Protocol: as §2

[11] = tested on: H. influenzae ATCC 9006; test: microdilution assay MIC, H. influenzae ATCC 9006; format: cell-based, Haemophilus influenzae
Protocol: as §1

[12] = tested on: S. aureus ATCC 6538p; test: microdilution assay MIC, S. aureus ATCC 6538p; format: cell-based, Staphylococcus aureus; conditions: erythromycin sensitive strain, average where multiple assays
Protocol: as §1

[13] = tested on: S. aureus ATCC 14154; test: microdilution assay MIC, S. aureus ATCC 14154; format: cell-based, Staphylococcus aureus
Protocol: as §2

[14] = tested on: S. epidermidis ATCC 12228; test: microdilution assay MIC, S. epidermidis ATCC 12228; format: cell-based, Staphylococcus epidermidis
Protocol: as §1

[15] = S. pneumoniae ATCC 700676, erythromycin A resistant strain, average where multiple assays
[16] = S. pneumoniae ATCC 700677, erythromycin A resistant strain, average where multiple assays
[17] = S. pneumoniae ATCC 700905, erythromycin A resistant strain, average where multiple assays
[18] = S. pneumoniae ATCC 700906, erythromycin A resistant strain, average where multiple assays
[19] = S. aureus ATCC 14154, erythromycin A resistant strain, average where multiple assays

| Compound | MIC [1] [µg/mL] | MIC [2] [µg/mL] | MIC ([3]; average where multiple assays) [µg/mL] | MIC [4, 15] [µg/mL] | MIC [5] [µg/mL] | MIC [6] [µg/mL] | MIC [7, 16] [µg/mL] | MIC ([8]; average where multiple assays) [µg/mL] | MIC [9, 17] [µg/mL] | MIC [10, 18] [µg/mL] | MIC ([11]; average where multiple assays) [µg/mL] | MIC [12] [µg/mL] | MIC [13, 19] [µg/mL] | MIC ([14]; average where multiple assays) [µg/mL] | other results |
| --- | --- | --- | --- | --- | --- | --- | --- | --- | --- | --- | --- | --- | --- | --- | --- |
| COC1(C)CC(C)C(=O)C(C)C2NC(=O)OC2(C)C(CCNS(=O)(=O)c2cccc3cccnc23)OC(=O)C(C)C(=O)C(C)C1OC1OC(C)CC(N(C)C)C1O (stereo not shown) [Compound 105] | 0.049 | 0.01 | 0.025 | 0.01 | 0.01 | 0.01 | 0.01 | 6.25 | 0.01 | 0.39 | 3.12 | 0.049 | 0.39 | 0.025 | – |
| COC1(C)CC(C)C(=O)C(C)C2NC(=O)OC2(C)C(CCNS(=O)(=O)c2cccc3ccccc23)OC(=O)C(C)C(=O)C(C)C1OC1OC(C)CC(N(C)C)C1O (stereo not shown) [Compound 106] | 0.025 | 0.01 | 0.025 | 0.01 | 0.01 | 0.01 | 0.01 | 6.25 | 0.01 | 12.5 | 6.25 | 0.01 | 3.12 | 0.025 | – |
| COC1(C)CC(C)C(=O)C(C)C2NC(=O)OC2(C)C(CCNS(=O)(=O)c2ccc3ccccc3c2)OC(=O)C(C)C(=O)C(C)C1OC1OC(C)CC(N(C)C)C1O (stereo not shown) [Compound 107] | 0.025 | 0.01 | 0.025 | 0.01 | 0.01 | 0.01 | 0.01 | 12.5 | 0.01 | 3.12 | 12.5 | 0.01 | 1.56 | 0.025 | – |
| COC1(C)CC(C)C(=O)C(C)C2NC(=O)OC2(C)C(CCNS(=O)(=O)c2cccc(-c3ccco3)c2)OC(=O)C(C)C(=O)C(C)C1OC1OC(C)CC(N(C)C)C1O (stereo not shown) [Compound 108] | 0.025 | 0.025 | 0.025 | 0.025 | 0.025 | 0.025 | 0.025 | >12.5 | 0.025 | 0.049 | 12.5 | 0.025 | 0.049 | 0.025 | – |
| CC[C@H]1OC(=O)[C@H](C)C(=O)[C@H](C)[C@@H](O[C@@H]2O[C@H](C)C[C@H](N(C)C)[C@H]2O)[C@](C)(OC)C[C@@H](C)C(=O)[C@H](C)[C@H]2N(CCCCn3cnc(-c4cccnc4)c3)C(=O)O[C@]12C [Tel, telithromycin, reference compound] | – | – | – | – | – | – | – | – | – | – | – | – | – | – | MIC ([1]; Staphylococcus aureus, ATCC29213, read-out: MIC): 0.025 µg/mL; MIC ([2]; Streptococcus pneumoniae, ATCC6301, read-out: MIC): 0.025 µg/mL; MIC ([3]; Enterococcus faecalis, ATCC51575, average where multiple assays, read-out: MIC): > 12.5 µg/mL; MIC ([4]; Streptococcus pneumoniae, ATCC700676, read-out: MIC): 0.098 µg/mL; MIC ([5]; Streptococcus pneumoniae, ATCC49619, read-out: MIC): 0.049 µg/mL; MIC ([6]; Streptococcus pneumoniae, ATCC700671, read-out: MIC): 0.025 µg/mL; MIC ([7]; Streptococcus pneumoniae, ATCC700677, read-out: MIC): 0.025 µg/mL; MIC ([8]; Haemophilus influenzae, ATCC49766, average where multiple assays, read-out: MIC): 3.12 µg/mL; MIC ([9]; Streptococcus pneumoniae, ATCC700905, read-out: MIC): 0.025 µg/mL; MIC ([10]; Streptococcus pneumoniae, ATCC700906, read-out: MIC): 0.2 µg/mL; MIC ([11]; Haemophilus influenzae, ATCC9006, average where multiple assays, read-out: MIC): 1.56 µg/mL; MIC ([12]; Staphylococcus aureus, ATCC6538P, read-out: MIC): 0.025 µg/mL; MIC ([13]; Staphylococcus aureus, ATCC14154, read-out: MIC): > 12.5 µg/mL; MIC ([14]; Staphylococcus epidermidis, ATCC12228, average where multiple assays, read-out: MIC): 0.025 µg/mL |
